Source: patent US4405609A, “Combination and method for increasing feed utilization efficiency in ruminants” (Eli Lilly and Company, priority 1982, dated 1983)

What was measured:
ruminants = conditions: Raun et al., J. Ani. Sci. 43, 670 (1976); cited from earlier work
feeder calves = assay: in vivo evaluation of monensin and actaplanin in feeder calves on high-grain ration; conditions: 30 grams per ton of each agent in feed
Source text: For example, in a typical in vivo evaluation of the combination of monensin and actaplanin, feeder calves were fed a high-grain ration such as that recited above. Fifteen control animals received the feed ration with no feed efficiency enhancer additive. Another group of fifteen calves received the feed ration containing monensin at 30 grams per ton, while a third group of fifteen animals received the feed ration with actaplanin at 30 grams per ton. A combination of 30 grams per ton of monensin and 30 grams per ton of actaplanin was administered as a feed additive to the ration consumed by a fourth group of fifteen test animals. […] The feed efficiency of such control group, calculated as the pounds of feed consumption required for one pound of animal weight gain, was 13.49.

[1] = test system: Hereford crossbred steers; assay: 140-day monensin/actaplanin feed study, corn silage diet; format: in vivo
Method: The animals were divided into a control group and into eleven test groups. All animals were fed a corn silage diet ad libitum once daily throughout the 140-day study, plus two pounds per head per day of the following cattle supplement:
Test compounds were formulated as a premix with 50 percent by weight of ground corn cobs and 48 percent by weight of ground corn. The premixes were added to the corn silage feed rations in amounts necessary to provide the desired doses of active ingredients to the test animals. The data are presented as the average for the entire group of animals receiving a particular dose of active agent.
In the foregoing table, the Feed Efficiency value is calculated by dividing the average amount of feed consumed (pounds of dry matter intake) by the average daily gain in weight (in pounds). Ideally, the animals will gain more weight on less feed intake. Accordingly, the most improvement in feed utilization efficiency is represented by smaller numbers. […] The optimum in this experiment was 10 g./T. of monensin and 40 g./T. of actaplanin which produced a 13.5% improvement in feed efficiency over untreated controls.

steers [2] = assay: further analysis of feed efficiency data: expected versus observed change; format: in vivo
Source text: When the components are utilized in amounts that are about their respective optimal dose levels when used alone, the combination causes an unexpected increase in feed utilization efficiency, which is believed the result of continued unexpected interaction. The results of this further analysis of data is presented below:
In the foregoing table, Δ is the change in feed efficiency of the treated group over the nontreated group. […] The change in efficiency is thus 0.14. The term "EΔ" is the change in efficiency expected with a combination, and is arrived at by adding the Δ values of the individual components at the appropriate dose levels. The term "OΔ" is the change in efficiency over nontreated controls actually observed with animals receiving the combination.

rumen fluid = assay: in vitro rumen fluid fermentor assay of propionate production; format: cell-based, steers; conditions: ± SD
Source text: Rumen fluid was obtained from steers which had surgically-installed fistula openings into the rumen. The steers were maintained on a high-grain ration such as the one described above.
A sample of rumen fluid was strained through four layers of cheese cloth and the eluate was collected in vacuum bottles. The particulate matter retained by the cheese cloth was resuspended in enough physiological buffer to return it to the original volume of the rumen fluid, and the eluate was strained again. The buffer utilized is described by Cheng et al., J. Dairy Sci., 38, 1225 (1955).
The two eluates were combined in a separatory funnel and allowed to stand until any remaining particulate matter separated to the top. The clear liquid layer then was removed, diluted with an equal volume of the above-mentioned buffer, and the pH of the solution was adjusted to 7.0.
Fermenter flasks were then changed with the rumen liquor thus prepared. Two fermentor flasks were used per each treatment group. The fermentor flasks were allowed to stand for four days for equilibration, and then measurements of proprionate production were made daily for six days in order to establish a control. Measurements were made by gas chromatographic methods. The fermenter flasks were then fed 20 grams per day of a finely ground ration composed of 20 percent high concentrate ration and 80 percent alfalfa hay. The individual feed efficiency enhancers, and the composition of such enhancers provided by this invention, were added to the feed and dried thereon prior to introduction of the feed ration into the fermentor flasks. The feed ration was introduced into the flasks approximately two times each day. After the initial administration of active ingredient, two days were allowed for reequilibration, and then the volatile fatty acid (VFA) production in each flask was monitored by gas chromatography for five days.

[3] = test system: Hereford crossbred steers; assay: 154-day trial of monensin (30 g./T.) with actaplanin; format: in vivo
Source text: In another study, two hundred Hereford crossbred steers averaging about 565 pounds were employed in a 154-day trial to determine the efficacy of combinations of monensin (at 30 g./T.) and actaplanin (at 20 g./T., 40 g./T. and 60 g./T.). The steers were fed a corn silage or corn-soya-cob roughage diet ad libitum once a day, together with a cattle supplement. The animals were divided into five treatment groups of forty steers each. These treatment groups were maintained in open pens; five animals per pen so that each treatment group comprised eight pens. Individual treatments were then assigned at random to each of the eight pens so that each treatment was replicated […] within each ration group.

[4] = test system: Hereford crossbred steers; assay: 140-day narasin/actaplanin feed study; format: in vivo
Source text: Another study was designed to show the unexpected interaction of the polyether narasin in combination with actaplanin. Two hundred forty Hereford crossbred steers averaging about 700 pounds and about 18 months of age were employed. The animals were fed corn silage and high moisture corn, plus two pounds per head per day of the following cattle supplement:
The treatments comprised three dose levels of narasin (0, 4 and 12 g./T.) and four dose levels of actaplanin (0, 10, 20 and 40 g./T.). The animals were randomly assigned to four blocks of twelve partially sheltered pens, each with five animals per pen. The treatments were allotted at random within the four 12-pen blocks such that each treatment was represented in each block. Each of the twelve treatments was replicated four times.

steers [5] = assay: combined data of the three steer studies, percentage response versus untreated controls; format: in vivo
Source text: The following figures report such data expressed as a percentage response when compared with untreated control animals.

[6] = dose giving largest increase in propionate production
Source text: The compositions provided herein comprise a polyether as defined above and a glycopeptide as defined above. The respective components will be present on a weight basis in a ratio of about 1 to about 10 parts polyether together with about 1 to about 10 parts glycopeptide. For example, a polyether such as narasin will be employed at a concentration level of about 1 to about 20 grams per ton of ruminant feedstuff, together with a glycopeptide such as avoparcin or actaplanin at a concentration level of about 5 to about 50 grams per ton of ruminant feedstuff. A particularly preferred embodiment of the invention is a combination of narasin at about 2 to about 10 grams per ton of feedstuff, and actaplanin at about 5 to about 20 grams per ton. […] Typically, the maximal doses of each component to be employed in accordance with the present invention are substantially the same as the maximal doses for effective growth promotion and feed utilization enhancement by the individual components. […] Similarly, actaplanin at a dose of about 30 grams per ton of feed effects the largest increase in propionate production observed with that agent. […]

[7] = monensin 10, actaplanin 0 grams/Ton
[8] = monensin 30, actaplanin 0 grams/Ton
[9] = polyether 0, actaplanin 10 g./T.
[10] = polyether 0, actaplanin 20 g./T.
[11] = polyether 0, actaplanin 40 g./T.
[12] = monensin 0, actaplanin 10 grams/Ton
[13] = monensin 0, actaplanin 20 grams/Ton
[14] = monensin 0, actaplanin 40 grams/Ton

For monensin, the “dosage level of maximal improvement in feed efficiency” value (ruminants) is listed as “about 33 ppm”, the “dose level of maximal improvement in feed efficiency” value (ruminants) is listed as “about 30 grams per ton of feed” and the “Average Daily Weight Gain” value (feeder calves) is listed as 1.42 pounds. For the same molecule, the “feed efficiency (pounds of feed consumption required for one pound of animal weight gain)” value (feeder calves) was 12.05, the “Average Daily Dry Matter Intake” value [1, 7] was 13.54 lbs and the “Average Daily Dry Matter Intake % change from control” value [1, 7] was “+9.6%”. The “Average Daily Weight Gain” value [1, 7] was 2.45 lbs, the “Average Daily Weight Gain % change over control” value [1, 7] was “+9.9%” and the “Feed Efficiency” value [1, 7] was 5.52. The “Feed Efficiency % change from control” value [1, 7] was -0.3%, the “Average Daily Dry Matter Intake” value [1, 8] was 12.94 lbs and the “Average Daily Dry Matter Intake % change from control” value [1, 8] was “+4.8%”. The “Average Daily Weight Gain” value [1, 8] was 2.39 lbs, the “Average Daily Weight Gain % change over control” value [1, 8] was “+7.2%” and the “Feed Efficiency” value [1, 8] was 5.42. For the same molecule, the “Feed Efficiency % change from control” value [1, 8] was -2.2%, the “Δ, change in feed efficiency of the treated group over the nontreated group” value (shortened to “Δ, change in feed efficiency”) (steers [2]; monensin 10 g./T. alone) was 0.14 and the “Feed efficiency (feed to gain ratio)” value (steers [2]; monensin 10 g./T., actaplanin 0) was 5.95. For the same molecule, the “Δ, change in feed efficiency” value (steers [2]; monensin 30 g./T. alone) was 0.39, the “Feed efficiency (feed to gain ratio)” value (steers [2]; monensin 30 g./T., actaplanin 0) was 5.70 and the “Propionate Production” value (rumen fluid; Monensin 0.5 PPM, Actaplanin 0 PPM) was 14.2 ± 1.7 mM/24 hours. For the same molecule, the “Propionate Production” value (rumen fluid; Monensin 3 PPM, Actaplanin 0 PPM) was 18.4 ± 3.2 mM/24 hours, the “Average Daily Dry Matter Intake” value [3, 8] was 16.79 lbs and the “Average Daily Weight Gain” value [3, 8] was 2.41 lbs. The “Feed Efficiency” value [3, 8] was 7.01 and the “increase in feed efficiency versus control” value ([3]; monensin alone (30 g./T.)) was 6.4%.

With `CC[C@@H](C(=O)O)[C@@H]1O[C@@H]([C@@H](C)[C@H](O)[C@H](C)C(=O)[C@H](CC)[C@H]2O[C@]3(C=C[C@@H](O)[C@]4(CC[C@@](C)([C@H]5CC[C@](O)(CC)[C@H](C)O5)O4)O3)[C@H](C)C[C@@H]2C)[C@@H](C)C[C@@H]1C` [narasin] the “Average Daily Dry Matter Intake” value ([4]; narasin 4, actaplanin 0 g./T.) was 16.41 Pounds, the “Average Daily Weight Gain” value ([4]; narasin 4, actaplanin 0 g./T.) was 2.53 Pounds and the “Average Feed Efficiency” value ([4]; narasin 4, actaplanin 0 g./T.) was 6.46. The “Average Daily Dry Matter Intake” value ([4]; narasin 12, actaplanin 0 g./T.) was 15.52 Pounds, the “Average Daily Weight Gain” value ([4]; narasin 12, actaplanin 0 g./T.) was 2.52 Pounds and the “Average Feed Efficiency” value ([4]; narasin 12, actaplanin 0 g./T.) was 6.18. The “decrease in feed intake versus untreated controls” value ([4]; narasin alone at 12 g./T.) was 7.2%.

With actaplanin the “Average Daily Weight Gain” value (feeder calves) was 1.38 pounds, the “feed efficiency (pounds of feed consumption required for one pound of animal weight gain)” value (feeder calves) was 12.36 and the “Combined Daily Gain Data, percentage response compared with untreated control” value (steers [5]; [9]) was 5.5 percentage. For the same molecule, the “Combined Feed Efficiency Data, percentage response compared with untreated control” value (steers [5]; [9]) was 1.3 percentage, the “Combined Daily Gain Data, percentage response compared with untreated control” value (steers [5]; [10]) was 6.6 percentage and the “Combined Feed Efficiency Data, percentage response compared with untreated control” value (steers [5]; [10]) was 4.4 percentage. For the same molecule, the “Combined Daily Gain Data, percentage response compared with untreated control” value (steers [5]; [11]) was 6.3 percentage, the “Combined Feed Efficiency Data, percentage response compared with untreated control” value (steers [5]; [11]) was 5.8 percentage and the “Average Daily Dry Matter Intake” value [1, 12] was 12.86 lbs. For the same molecule, the “Average Daily Dry Matter Intake % change from control” value [1, 12] was “+4.1%”, the “Average Daily Weight Gain” value [1, 12] was 2.44 lbs and the “Average Daily Weight Gain % change over control” value [1, 12] was “+9.4%”. For the same molecule, the “Feed Efficiency” value [1, 12] was 5.28, the “Feed Efficiency % change from control” value [1, 12] was -4.9% and the “Average Daily Dry Matter Intake” value [1, 13] was 12.86 lbs. The “Average Daily Dry Matter Intake % change from control” value [1, 13] was “+4.1%”, the “Average Daily Weight Gain” value [1, 13] was 2.37 lbs and the “Average Daily Weight Gain % change over control” value [1, 13] was “+6.3%”. The “Feed Efficiency” value [1, 13] was 5.43, the “Feed Efficiency % change from control” value [1, 13] was -2.0% and the “Average Daily Dry Matter Intake” value [1, 14] was 12.47 lbs. For the same molecule, the “Average Daily Dry Matter Intake % change from control” value [1, 14] was “+1.0%”, the “Average Daily Weight Gain” value [1, 14] was 2.39 lbs and the “Average Daily Weight Gain % change over control” value [1, 14] was “+7.2%”. The “Feed Efficiency” value [1, 14] was 5.22, the “Feed Efficiency % change from control” value [1, 14] was -6.1% and the “Δ, change in feed efficiency” value (steers [2]; actaplanin 10 g./T. alone) was 0.09. The “Δ, change in feed efficiency” value (steers [2]; actaplanin 20 g./T. alone) was 0.28, the “Δ, change in feed efficiency” value (steers [2]; actaplanin 40 g./T. alone) was 0.36 and the “Feed efficiency (feed to gain ratio)” value (steers [2]; monensin 0, actaplanin 10 g./T.) was 6.00. The “Feed efficiency (feed to gain ratio)” value (steers [2]; monensin 0, actaplanin 20 g./T.) was 5.81, the “Feed efficiency (feed to gain ratio)” value (steers [2]; monensin 0, actaplanin 40 g./T.) was 5.73 and the “Propionate Production” value (rumen fluid; Monensin 0 PPM, Actaplanin 1 PPM) was 13.0 ± 2.0 mM/24 hours. The “Propionate Production” value (rumen fluid; Monensin 0 PPM, Actaplanin 4 PPM) was 19.9 ± 3.0 mM/24 hours, the “feed intake (in words)” value ([4]; actaplanin alone at 20 g./T.) was “slight decrease in feed intake” and the improved daily gains ([4]; actaplanin alone at 20 g./T.) was 5.9%. The “Average Daily Dry Matter Intake” value ([4]; narasin 0, actaplanin 10 g./T.) was 16.47 Pounds, the “Average Daily Weight Gain” value ([4]; narasin 0, actaplanin 10 g./T.) was 2.54 Pounds and the “Average Feed Efficiency” value ([4]; narasin 0, actaplanin 10 g./T.) was 6.47. The “Average Daily Dry Matter Intake” value ([4]; narasin 0, actaplanin 20 g./T.) was 16.51 Pounds, the “Average Daily Weight Gain” value ([4]; narasin 0, actaplanin 20 g./T.) was 2.66 Pounds and the “Average Feed Efficiency” value ([4]; narasin 0, actaplanin 20 g./T.) was 6.19. The “Average Daily Dry Matter Intake” value ([4]; narasin 0, actaplanin 40 g./T.) was 16.02 Pounds, the “Average Daily Weight Gain” value ([4]; narasin 0, actaplanin 40 g./T.) was 2.59 Pounds and the “Average Feed Efficiency” value ([4]; narasin 0, actaplanin 40 g./T.) was 6.18. For the same molecule, the “dose that effects the largest increase in propionate production observed with that agent” value [6] was “about 30 grams per ton of feed”.
